Measured values: PubChem BioAssay (NCI)
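Each compound was tested at five concentrations against cells in 96-well plates for 48 hours. GI50 is the concentration that inhibits growth by half. TGI is the concentration that stops growth completely.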

Experiments:
Assay in all cases: growth of human tumour cells (NCI), 48 h
[1] = tested on: 786-0 renal
[2] = tested on: A498 renal
[3] = tested on: A549 NSCLC
[4] = tested on: ACHN renal
[5] = tested on: BT-549 breast
[6] = tested on: CAKI-1 renal
[7] = tested on: CCRF-CEM leukemia
[8] = tested on: COLO 205 colon
[9] = tested on: DU-145 prostate
[10] = tested on: EKVX NSCLC
[11] = tested on: HCC-2998 colon
[12] = tested on: HCT-116 colon
[13] = tested on: HCT-15 colon
[14] = tested on: HL-60(TB) leukemia
[15] = tested on: HOP-62 NSCLC
[16] = tested on: HOP-92 NSCLC
[17] = tested on: HS 578T breast
[18] = tested on: HT29 colon
[19] = tested on: IGROV1 ovarian
[20] = tested on: K-562 leukemia
[21] = tested on: KM12 colon
[22] = tested on: LOX IMVI melanoma
[23] = tested on: M14 melanoma
[24] = tested on: MALME-3M melanoma
[25] = tested on: MCF7 breast
[26] = tested on: MDA-MB-231 breast
[27] = tested on: MDA-MB-435
[28] = tested on: MOLT-4 leukemia
[29] = tested on: NCI-H226 lung
[30] = tested on: NCI-H23 lung
[31] = tested on: NCI-H460 lung
[32] = tested on: NCI-H522 lung
[33] = tested on: NCI/ADR-RES ovarian
[34] = tested on: OVCAR-3 ovarian
[35] = tested on: OVCAR-4 ovarian
[36] = tested on: OVCAR-5 ovarian
[37] = tested on: OVCAR-8 ovarian
[38] = tested on: PC-3 prostate
[39] = tested on: RPMI-8226 leukemia
[40] = tested on: RXF 393 renal
[41] = tested on: SF-268 CNS
[42] = tested on: SF-295 CNS
[43] = tested on: SF-539 CNS
[44] = tested on: SK-MEL-2 melanoma
[45] = tested on: SK-MEL-28 melanoma
[46] = tested on: SK-MEL-5 melanoma
[47] = tested on: SK-OV-3 ovarian
[48] = tested on: SN12C renal
[49] = tested on: SNB-19 CNS
[50] = tested on: SNB-75 CNS
[51] = tested on: SR leukemia
[52] = tested on: SW-620 colon
[53] = tested on: T-47D breast
[54] = tested on: TK-10 renal
[55] = tested on: U251 CNS
[56] = tested on: UACC-257 melanoma
[57] = tested on: UACC-62 melanoma
[58] = tested on: UO-31 renal

O=C(Nc1ccc(-n2ccc3c(NC(=O)c4ccccc4)ncnc32)cc1)c1ccc(Cl)c(C(F)(F)F)c1
GI50 [1]: 5.02 µM | TGI [1]: 23.6 µM | GI50 [2]: 13 µM | TGI [2]: 29.4 µM | GI50 [3]: 1.84 µM | TGI [3]: 12.6 µM | GI50 [4]: 1.28 µM | TGI [4]: 15.2 µM | GI50 [5]: 15.1 µM | TGI [5]: 48.8 µM | GI50 [6]: 0.83 µM | TGI [6]: 11.1 µM | GI50 [7]: 0.849 µM | TGI [7]: 18.2 µM | GI50 [8]: 2.46 µM | TGI [8]: 17.2 µM | GI50 [9]: 1.48 µM | TGI [9]: 8.46 µM | GI50 [10]: 5.66 µM | TGI [10]: 25.4 µM | GI50 [11]: 4.5 µM | TGI [11]: 23.5 µM | GI50 [12]: 0.536 µM | TGI [12]: 7.26 µM | GI50 [13]: 0.116 µM | TGI [13]: 6.77 µM | GI50 [14]: 4.99 µM | TGI [14]: > 52.8 µM | GI50 [15]: 3.45 µM | TGI [15]: 11.2 µM | GI50 [16]: 8.16 µM | TGI [16]: 25.7 µM | GI50 [17]: 4.96 µM | TGI [17]: 15.6 µM | GI50 [18]: 0.752 µM | TGI [18]: 6.16 µM | GI50 [19]: 5.81 µM | TGI [19]: 31 µM | GI50 [20]: 0.42 µM | TGI [20]: > 35 µM | GI50 [21]: 0.939 µM | TGI [21]: 7.71 µM | GI50 [22]: 0.321 µM | TGI [22]: 3.71 µM | GI50 [23]: 1.37 µM | TGI [23]: 9.47 µM | GI50 [24]: 6.41 µM | TGI [24]: 21.2 µM | GI50 [25]: 1.91 µM | TGI [25]: 15.6 µM | GI50 [26]: 1.93 µM | TGI [26]: 11.5 µM | GI50 [27]: 2.12 µM | TGI [27]: 10.3 µM | GI50 [28]: 1.38 µM | TGI [28]: > 32 µM | GI50 [29]: 6.58 µM | TGI [29]: 25.1 µM | GI50 [30]: 13.1 µM | TGI [30]: 40.7 µM | GI50 [31]: 0.204 µM | TGI [31]: 4.8 µM | GI50 [32]: 3.02 µM | TGI [32]: 13.3 µM | GI50 [33]: 3.1 µM | TGI [33]: 23.5 µM | GI50 [34]: 3.44 µM | TGI [34]: 9.37 µM | GI50 [35]: 2.63 µM | TGI [35]: 9.42 µM | GI50 [36]: 3.87 µM | TGI [36]: 22.5 µM | GI50 [37]: 2.1 µM | GI50 [38]: 3.57 µM | TGI [38]: 14.7 µM | GI50 [39]: 1.63 µM | TGI [39]: 29 µM | GI50 [40]: 4.74 µM | TGI [40]: 15.4 µM | GI50 [41]: 2.17 µM | TGI [41]: 15.2 µM | GI50 [42]: 1.91 µM | TGI [42]: 20 µM | GI50 [43]: 3.63 µM | TGI [43]: > 54.7 µM | GI50 [44]: 2.36 µM | TGI [44]: 8.68 µM | GI50 [45]: 4.9 µM | TGI [45]: 15.3 µM | GI50 [46]: 0.603 µM | TGI [46]: 15.1 µM | GI50 [47]: 11.1 µM | TGI [47]: 25.5 µM | GI50 [48]: 3.8 µM | TGI [48]: 16.5 µM | GI50 [49]: 4.21 µM | TGI [49]: 17.8 µM | GI50 [50]: 1.55 µM | TGI [50]: 11.4 µM | GI50 [51]: 0.145 µM | TGI [51]: > 20.1 µM | GI50 [52]: 1.29 µM | TGI [52]: 6.21 µM | GI50 [53]: 2.9 µM | TGI [53]: 13.8 µM | GI50 [54]: 5.17 µM | TGI [54]: 12.9 µM | GI50 [55]: 0.462 µM | TGI [55]: 5.75 µM | GI50 [56]: 5.17 µM | TGI [56]: 24.5 µM | GI50 [57]: 0.947 µM | TGI [57]: 12.2 µM | GI50 [58]: 7.13 µM | TGI [58]: 23.7 µM
